Measurements reported in US20240116923A1, “USE OF INDOLE, 6- AND 7-AZAINDOLE DERIVATIVES AS INHIBITORS OF FERROPTOSIS REGULATED CELL DEATH” (Seabelife, priority 2021, published 2024).
Like-named read-outs stand apart in the source and are kept apart here.

Columns and labels:
[1] = test system: human neuroblastoma cell line SH-SY5Y; test: Neurotoxicity assay, SH-SY5Y cells + erastin or RSL3, MTS cell viability; assay type: cell-based; details: Homo sapiens
Procedure: The excitotoxicity model used was the mouse hippocampal neuronal HT22 cells treated with glutamate [Dixon et al., Cell, 2012, 149(5), 1060-1072]. Ferroptosis and oxidative stress are both associated in this glutamate-induced cell death [Chu et al., Neural Regen. Res., 2020, 15(3), 528-536]. Phenotypic screening was also carried out with additional cell death inducers, erastin and RSL3 ((1S,3R)-Ras-selective lethal), in HT22 and SH-SY5Y (human neuroblastoma cells). Erastin and RSL3 are well described molecules, used as chemical tools for the study of ferroptosis regulation and neuronal pathologies [Lewerenz et al., Front. Neurosci., 2018, 12: 214; Reichert et al., Int. J. Mol. Sci., 2020, 21, 8765].
Mouse hippocampal neuronal cell line (HT22, ATCC) and human neuroblastoma cell line (SH-SY5Y, ATCC) were grown in Dulbecco's Modified Eagle Medium (DMEM, Gibco) supplemented with 10% fetal bovine serum (FBS, Gibco) at 37° C. under 5% CO2 atmosphere. Neurotoxicity was induced by erastin or RSL3 and excitotoxicity was induced by glutamate. Cells were seeded in 96-well plates at 5,000 and 10,000 cells/well for HT22 and SH-SY5Y cell lines, respectively. Cells were treated with 0.5-1 μM Erastin (HT22 cells) or 10 μM Erastin (SH-SY5Y cells) or 5-10 mM glutamate (HT22 cells) or 0.5 μM RSL3 (HT22 cells) or 5 μM RSL3 (SH-SY5Y cells) for 24 h in presence of increasing concentrations of inhibitors. Cells treated with DMSO only were used as controls. Cell viability was assessed by MTS assay (CellTiter 96 AQueous One Solution Cell Proliferation assay, Promega).
In FIGS. 1, 2A and 2B, an inhibitor was added to HT22 (FIG. 1: compound 6) or SH-SY5Y (FIG. 2A: compound 6; FIG. 2B: compound 25) cells in the presence or not of cell death inducers (erastin, glutamate or RSL3). […] EC50 values for compounds 1-28 were calculated from dose-response curves using Graphpad Prism software.

Abca4−/−Rdh8−/− mice = test: In vivo model of Stargardt's disease and AMD, blue light damage, ERG and OCT
Procedure: As described in Parmar et al., Invest Ophthalmol Vis Sci., 2016, 57(7), mice lacking ATP-binding cassette transporter 4 (ABCA4) and retinol dehydrogenase 8 (RDH8) mimic features of human Stargardt's disease and age-related macular degeneration. Intense light exposure can accelerate retinal degeneration in Abca4^−/−Rdh8^−/− mice.
Blue light damage (BLD) experiments are performed on 7-week-old Abca4−/−Rdh8−/− mice. The animals were adapted to low light levels (4000 lux, 30 minutes). Six days after BLD, an optical coherence tomography (OCT) examination of each eye is performed, which provides a “snapshot” of the state of the retinal cell layers in living mice. OCT is based on the use of a low coherence interferometer. This imaging technique allows in vivo cross-sectional images of tissues to be taken with a resolution of a few microns. It is performed under light gas anaesthesia (5% isoflurane at induction then 2% during maintenance) and is non-invasive. The pupils of the mice are dilated with 0.5% Midriaticum. A representative image of each eye was extracted and included in separate report documents (4 OCT attachments). The following day, measurements of the electrical activity of the retina were made by measuring scotopic and photopic electroretinograms (ERG). The scotopic ERG is performed after a night in the dark in order to measure the electrical response of the rods which represent 97% of the photoreceptors in the mouse. At higher intensities, the cones also respond. This is followed by a photopic ERG which records the response of the cones only. Three measurements corresponding to the activity of 1) rod and cone photoreceptors, 2) inner retinal bipolar cells and 3) cones only, are obtained. The eyes are then harvested and prepared for subsequent histological analysis. In the IP experiments, one eye is dissected and the retina and RPE are frozen separately. These tissues can be used for further measurements.
Compound 1 in powder form is taken up in DMSO in order to obtain a solution at 20 mM. These solutions are stored at −20° C. and are thawed extemporaneously to prepare a solution diluted 89 times in PBS. These solutions give a final concentration in the eye of around 50 μM for compound 1, and 0.25% DMSO. A vehicle is prepared from pure DMSO to achieve a final 0.25% in the vitreous. Mice are lightly anaesthetised with isoflurane during the IVT procedure. A volume of 1.5 μL is injected into the vitreous of the left eye.
In order to measure the thickness of the retina and the photoreceptor layer, image processing was performed using Image J software. The thickness of the whole retina is measured between the outer segment layer and the ganglion cell layer. The thickness of the photoreceptor layer is measured between the outer plexiform layer and the outer segment layer. On average 6 measurements are made along the length of an OCT image representing an upper or lower half-retina. In order to prepare plates of sections of the eyes from the SBL2 IVT experiment, one eye corresponding to each condition was cut on the cryostat, i.e. one NINI eye and both eyes of an SBL2-injected mouse (I and NI).
The solutions are prepared extemporaneously from water-soluble lyophilisates of compound 7 (SBL1)-cyclodextrin (final CD concentration, 15%) and the corresponding placebos. The solutions are prepared by injecting a predefined volume of 0.9% NaCl into the vial. The vial is then vortexed and the solution is filtered into a new sterile tube. Two groups of 3 mice are used for these tests. The group received either SBL1 (20 mg/kg) (n=3) or placebo-SBL1 (n=3). The volume to be injected is calculated according to the weight of the mice and corresponds to 10 ml/kg. Mice were injected 3 and 1 h before and 1 and 3 h after the start of the BLD.

Compound	EC50 ([1]; SH-SY5Y cells, 5 μM RSL3, 24 h, MTS, read-out: EC50 SH-SY5Y RSL3) [nM]	EC50 ([1]; SH-SY5Y cells, 10 μM Erastin, 24 h, MTS, read-out: EC50 SH-SY5Y Erastin) [nM]	electrical response of retinal cells (scotopic and photopic ERG) compared to placebo (Abca4−/−Rdh8−/− mice; intraperitoneal 20 mg/kg, 3 and 1 h before and 1 and 3 h after start of BLD, cyclodextrin lyophilisate)	scotopic B wave at higher intensities (inner retina response) (Abca4−/−Rdh8−/− mice; intraperitoneal 20 mg/kg, FIG. 35)	scotopic ERG response to the 30 cd·s/m^2 flash intensity (mixed rod-cone response) (Abca4−/−Rdh8−/− mice; intraperitoneal 20 mg/kg, FIGS. 34 & 35)	whole retinal thickness from OCT, injected vs non-injected mice (Abca4−/−Rdh8−/− mice; intraperitoneal treatment, FIG. 36)	EC50 ([1]; SH-SY5Y, 24 h, read-out: EC50 SH-SY5Y Erastin) [nM]	electrical response of retinal cells (scotopic and photopic ERG) (Abca4−/−Rdh8−/− mice; intravitreal injection, 50 μM in the eye, after blue light damage)	thickness of the retinas from OCT, injected versus non-injected eyes (Abca4−/−Rdh8−/− mice; intravitreal treatment, FIG. 33)	photopic ERG, injected vs non-injected eyes (Abca4−/−Rdh8−/− mice; intravitreal, 50 μM, 30 cd·s/m2, FIG. 30)	scotopic ERG B wave, injected vs uninjected eyes (Abca4−/−Rdh8−/− mice; intravitreal, 50 μM, p=0.048 vs VEH NI at 30 cd·s/m2, FIG. 32)	scotopic ERG A wave, injected eye vs vehicle-injected eye (Abca4−/−Rdh8−/− mice; intravitreal, 50 μM, significant (P=0.0206) vs VEH NI at 10 cd·s/m2, FIG. 31)
Oc1ccc(-c2cc3cccnc3[nH]2)cc1 [Compound 7, 4-(1H-pyrrolo[2,3-b]pyridin-2-yl)phenol]	1360	12400	slightly protect the electrical response of retinal cells	protective trend	protective trend	a difference between the whole retinas of injected and non-injected mice	–	–	–	–	–	–
Oc1ccc(-c2cc3ccccc3[nH]2)cc1 [Compound 1, 4-(1H-indol-2-yl)phenol]	–	–	–	–	–	–	1060	appears to preserve the electrical response of retinal cells	significant difference	partially preserved	appears preserved	a clear difference is observed
